Data from PubChem BioAssay AID651961 (The Scripps Research Institute Molecular Screening Center, 2012).
Active and inactive are the calls of the source. No rule for the calls is given here.

Each compound was assayed on BLA reporter cell line, FRET fluorescence counterscreen (assay: beta-lactamase reporter inhibition, nonselective hits, late-stage follow-up, counter-screen for NOD2-RIPK2 interaction inhibitor project, cell-based, FRET fluorescence, dose response (AID 651961)).

Structure (SMILES)	IC50
Cc1ccc(C(C[N+](=O)[O-])n2nc(C)cc2C)cc1 (stereo unspecified)	> 49.8 µM (inactive)
Cc1cc(S(=O)(=O)N2CCCCCC2)ccc1F	> 49.8 µM (inactive)
Cc1ncc([N+](=O)[O-])n1Cc1ccc(Cl)c(Cl)c1	> 49.8 µM (inactive)
Cc1nc([N+](=O)[O-])c(Br)n1Cc1ccccc1	> 49.8 µM (inactive)
COc1ccc(C(C[N+](=O)[O-])n2nc(C)cc2C)cc1 (stereo unspecified)	> 49.8 µM (inactive)
O=[N+]([O-])c1cccc(S(=O)(=O)N2CCCCCC2)c1	> 49.8 µM (inactive)
Cc1nc([N+](=O)[O-])c(Br)n1Cc1ccc(Cl)c(Cl)c1	> 49.8 µM (inactive)
O=S(=O)(c1ccccc1)N1CCCCCC1	> 49.8 µM (inactive)
Cc1ccc(S(=O)(=O)N2CCCCCC2)cc1[N+](=O)[O-]	> 49.8 µM (inactive)
O=[N+]([O-])c1cc(S(=O)(=O)N2CCCCCC2)ccc1F	> 49.8 µM (inactive)
O=S(=O)(c1ccc(F)cc1)N1CCCCCC1	> 49.8 µM (inactive)
